Experimental data: patent US20240066057A1, “METHOD FOR TREATING PAIN USING VANADIUM COMPOUNDS” (HUNAN FANGSHENGTAI MEDICAL TECHNOLOGY CO., LTD, priority 2020, published 2024)

Key:
[1] = system: Kunming mice with CFA-induced inflammation; experiment: Effective concentration and plateau experiment of vanadium compounds, tail vein injection, mouse pain model; assay type: in vivo; details: for Duration / Maximum analgesic intensity (mean) / Onset time: 6 samples
[2] = system: Kunming mice with CFA-induced inflammation; experiment: Von Frey test (50% paw withdrawal threshold) in CFA-induced inflammatory pain mouse model; assay type: in vivo
Description: 10 μL of complete Freund's adjuvant (CFA) was injected into the left hind foot of mice (♂ Kunming mice, 22 g to 40 g) to induce inflammation. 24 hours after the injection, a Von Frey test was performed to determine a pain threshold. That is, under the guidance of Dixon's Up-Down method, Von Frey fibers were used to induce the mechanical paw withdrawal of the mice, and data were collected and calculated to obtain their 50% paw withdrawal thresholds (paw withdrawal threshold or PWT for short, i.e. pain threshold). Mice were then divided into different groups, including a normal saline group, a positive control group, and a drug group, which were intraperitoneally injected with normal saline, an aspirin (acetylsalicylic acid, or ASA) solution and a solution of compound for testing respectively. A Von Frey test was then performed to monitor changes in pain threshold.
Mice were divided into three groups: a blank control group, an aspirin (ASA) group, and a drug group. In blank control group, the mice were given normal saline, deionized water or deionized water containing ≤5% DMSO at the same volume as that in the drug group. In ASA group, the mice were given the known analgesic drug ASA as the positive control for tested compounds. In drug group, the mice were given compounds for testing accordingly. Due attention was paid to observe whether the pain threshold rose, the period during which the rise was maintained and the magnitude of the rise, after the injection of a tested compound solution.

[3] = Plateau experiment, dose (vanadium) A5/G3 0.25, A1/G1/H1 0.49, A4/G2/H2 0.97, H3 1.9 mg/kg, listed as A1
[4] = Example 3, intraperitoneal injection, A1 0.97 mg/kg (atomic mass of vanadium), S about 250 mg/kg
[5] = intraperitoneal injection, doses as in Examples 3-9
[6] = intraperitoneal injection, doses as in Examples 3-9, most of the time after onset
[7] = Plateau experiment, dose (vanadium) A5/G3 0.25, A1/G1/H1 0.49, A4/G2/H2 0.97, H3 1.9 mg/kg, listed as A4
[8] = Plateau experiment, dose (vanadium) A5/G3 0.25, A1/G1/H1 0.49, A4/G2/H2 0.97, H3 1.9 mg/kg, listed as A5
[9] = Effective concentration table, 8.2 × 10^−4 mg/kg
[10] = Plateau experiment, dose (vanadium) A5/G3 0.25, A1/G1/H1 0.49, A4/G2/H2 0.97, H3 1.9 mg/kg, listed as G2
[11] = Plateau experiment, dose (vanadium) A5/G3 0.25, A1/G1/H1 0.49, A4/G2/H2 0.97, H3 1.9 mg/kg, listed as G3
[12] = Plateau experiment, dose (vanadium) A5/G3 0.25, A1/G1/H1 0.49, A4/G2/H2 0.97, H3 1.9 mg/kg, listed as H1
[13] = Example 11 (BMOV), intraperitoneal injection, H1 about 0.97 mg/kg (atomic mass of vanadium)
[14] = Plateau experiment, dose (vanadium) A5/G3 0.25, A1/G1/H1 0.49, A4/G2/H2 0.97, H3 1.9 mg/kg, listed as H2
[15] = Plateau experiment, dose (vanadium) A5/G3 0.25, A1/G1/H1 0.49, A4/G2/H2 0.97, H3 1.9 mg/kg, 1.9 mg/kg
[16] = Example 12, intraperitoneal injection, J about 0.97 mg/kg (atomic mass of vanadium)
[17] = Example 14, intraperitoneal injection, L about 0.97 mg/kg (atomic mass of vanadium)
[18] = Example 15, intraperitoneal injection, M about 0.97 mg/kg (atomic mass of vanadium)
[19] = Example 13, intraperitoneal injection, K about 0.97 mg/kg (atomic mass of vanadium)
[20] = Example 5, intraperitoneal injection, C 1.9 mg/kg (atomic mass of vanadium), S about 250 mg/kg
[21] = intraperitoneal injection, conclusions of Examples 3-9
[22] = intraperitoneal injection, versus aspirin control group
[23] = Example 6, intraperitoneal injection, D 1.9 mg/kg, S about 250 mg/kg, listed as D
[24] = Example 11 (BEOV), intraperitoneal injection, I about 0.97 mg/kg (atomic mass of vanadium)

[Na+].[Na+].[Na+].[O]=[V]([O-])([O-])[O-] [Solution A1, Sodium orthovanadate]
Duration [1, 3]: >60 min
Maximum analgesic intensity (mean) [1, 3]: ~0.55 g
Duration [2, 4]: >60 min
Onset time [2, 4]: 30 to 45 after injection min
Duration ([2]; Example 4, intraperitoneal injection, A1 0.97, A2 0.19, A3 0.097 mg/kg (atomic mass of vanadium)): >60 min
Onset time ([2]; Example 4, intraperitoneal injection, A1 0.97, A2 0.19, A3 0.097 mg/kg (atomic mass of vanadium), listed as A1): 30 to 45 after injection min
Time after injection at which the pain threshold returned to the baseline value [2, 5]: > 90 min
Pain thresholds / analgesic intensity compared with the S (ASA, aspirin) group [2, 6]: generally higher than those of the mice in the S group

[Na+].[Na+].[Na+].[O]=[V]([O-])([O-])[O-] [Solution A2, Sodium orthovanadate]
Onset time ([2]; Example 4, intraperitoneal injection, A1 0.97, A2 0.19, A3 0.097 mg/kg (atomic mass of vanadium), listed as A2): 30 to 45 after injection min

[Na+].[Na+].[Na+].[O]=[V]([O-])([O-])[O-] [Solution A3, Sodium orthovanadate]
Onset time ([2]; Example 4, intraperitoneal injection, A1 0.97, A2 0.19, A3 0.097 mg/kg (atomic mass of vanadium), 0.097 mg/kg): 30 to 45 after injection min

[Na+].[Na+].[Na+].[O]=[V]([O-])([O-])[O-] [Solution A4, Sodium orthovanadate]
Duration [1, 7]: <60 min
Maximum analgesic intensity (mean) [1, 7]: ~0.30 g

[Na+].[Na+].[Na+].[O]=[V]([O-])([O-])[O-] [Solution A5, Sodium orthovanadate]
Duration [1, 8]: >60 min
Maximum analgesic intensity (mean) [1, 8]: ~0.45 g

[Na+].[Na+].[Na+].[O]=[V]([O-])([O-])[O-] [Solution A6, Sodium orthovanadate]
Duration [1, 9]: <60 min
Onset time [1, 9]: 0 to 15 min

O=S(=O)([O-])[O-].[O]=[V+2] [Solution G2, Vanadyl sulfate]
Duration [1, 10]: no obvious difference
Maximum analgesic intensity (mean) [1, 10]: ~0.49 g

O=S(=O)([O-])[O-].[O]=[V+2] [Solution G3, Vanadyl sulfate]
Duration [1, 11]: >60 min
Maximum analgesic intensity (mean) [1, 11]: ~0.46 g

O=S(=O)([O-])[O-].[O]=[V+2] [Solution G4, Vanadyl sulfate]
Duration [1, 9]: <60 min
Onset time [1, 9]: 0 to 15 min

O=S(=O)([O-])[O-].[O]=[V+2] [Solution G, Vanadyl sulfate]
Minimum effective dose ([1]; mice): about 1.0×10^−3 mg/kg
Blood concentration in mice equivalent to the plateau dose ([1]; plateau dose 0.49 mg/kg): 140 µM

Cc1occc(=O)c1[O-].Cc1occc(=O)c1[O-].[O]=[V+2] [Solution H1, bis(maltolato)oxovanadium (IV)]
Duration [1, 12]: ≤60 min
Maximum analgesic intensity (mean) [1, 12]: 0.33 g
Duration [2, 13]: >60 min
Onset time [2, 13]: 0 to 15 after injection min

Cc1occc(=O)c1[O-].Cc1occc(=O)c1[O-].[O]=[V+2] [Solution H2, bis(maltolato)oxovanadium (IV)]
Duration [1, 14]: >60 min
Maximum analgesic intensity (mean) [1, 14]: 0.54 g

Cc1occc(=O)c1[O-].Cc1occc(=O)c1[O-].[O]=[V+2] [Solution H3, bis(maltolato)oxovanadium (IV)]
Duration [1, 15]: ≤60 min
Maximum analgesic intensity (mean) [1, 15]: 0.48 g

Cc1occc(=O)c1[O-].Cc1occc(=O)c1[O-].[O]=[V+2] [Solution H, bis(maltolato)oxovanadium (IV)]
Plateau dose ([1]; mice, based on vanadium): ≥ 0.97 mg/kg

[O]=[V-2]12([O]C3=COC(CO)=CC3=[O+]1)[O]C1=COC(CO)=CC1=[O+]2 [Solution J, bis(kojato)oxovanadium (IV)]
Duration [2, 16]: >60 min
Onset time [2, 16]: 15 to 30 after injection min

O=C([O-])C(=O)[O-].[O]=[V+2] [Solution L, Vanadyl oxalate]
Duration [2, 17]: >60 min
Onset time [2, 17]: 15 to 30 after injection min

O=C(O)c1ccccn1.O=C(O)c1ccccn1.[O]=[V] [Solution M, Bis(picolinato)oxovanadium (IV)]
Duration [2, 18]: >60 min
Onset time [2, 18]: 15 to 30 after injection min

Bis(acetylacetonato)oxovanadium (IV) [Solution K]
Duration [2, 19]: >60 min
Onset time [2, 19]: 15 to 30 after injection min

Cis-bis(maltolato)methoxyoxovanadium (V) [Solution C]
Duration [2, 20]: about 60 min
Onset time [2, 20]: 15 to 30 after injection min
Analgesic effect [2, 21]: has an analgesic effect
Time after injection at which the pain threshold returned to the baseline value [2, 5]: 90 min
Pain thresholds / analgesic intensity compared with the S (ASA, aspirin) group [2, 6]: comparable to those of the mice, boosted by the solution S, in the S group
Effective duration compared with aspirin (ASA) [2, 22]: longer than that of aspirin

Sodium metavanadate [Solution D]
Duration [2, 23]: >60 min
Onset time [2, 23]: 0 to 15 after injection min
Duration ([2]; Example 6, intraperitoneal injection, D 1.9 mg/kg, S about 250 mg/kg, listed as metavanadate): > 60 min
Analgesic effect [2, 21]: has an analgesic effect
Time after injection at which the pain threshold returned to the baseline value [2, 5]: ~90 min
Pain thresholds / analgesic intensity compared with the S (ASA, aspirin) group [2, 6]: greater than or comparable to those of the mice, boosted by the solution S, in the S group
Effective duration compared with aspirin (ASA) [2, 22]: longer than that of aspirin

bis(ethylmaltolato)oxovanadium (IV) [Solution I]
Duration [2, 24]: >60 min
Onset time [2, 24]: 15 to 30 after injection min

potassium dioxo(citrato)vanadate (V) [Solution F]
Duration ([2]; mouse, in vivo): >60 min
Onset time ([2]; mouse, in vivo): 15 to 30 after injection min
Analgesic effect ([2]; mouse, in vivo, ip): has an analgesic effect
Effective duration compared with aspirin (ASA) ([2]; mouse, in vivo, ip): longer than that of aspirin
Pain thresholds / analgesic intensity compared with the S (ASA, aspirin) group ([2]; mouse, in vivo, ip): higher than those of the mice, boosted by the solution S, in the S group
Time after injection at which the pain threshold returned to the baseline value ([2]; mouse, in vivo, ip): > 90 min
